Reference: patent US20230339854A1, “Negative Allosteric Modulation of GluN3-Containing N-Methyl-D-Aspartate Receptors” (Emory University, priority 2020, published 2023)
Like-named read-outs stand apart in the source and are kept apart here.

Experiments:
nicotinic receptors = assay: Nicotinic acetylcholine receptors in Xenopus oocytes (selectivity); format: cell-based, rat; conditions: 20 μM
Procedure: (§1) The numbers of oocytes recorded are in parentheses.
(§2) The cDNA was linearized by restriction enzymes (Thermo Fisher Scientific, Lithuania), and the cRNA encoding the receptor subunits was synthesized from the linear template cDNA using the mMESSAGE mMACHINE kit (Invitrogen/Thermo Fisher Scientific, Lithuania). The α1β1δγ nAChR subunits were injected at a 1:1:1:1 ratio while α4 […] nAChR subunits were injected at a 1:1 ratio. The cDNAs encoding GABA and glycine subunits were provided by Dr. D. Weiss (University of Texas Health Science Center at San Antonio). The cDNAs encoding nAChR subunits were provided by Drs. R. Papke (University of Florida) and S. Heinemann (Salk Institute). The cDNA encoding the purinergic receptor was provided by Dr. R. Hume (University of Michigan).
(§3) Responses in the presence of EU1180-438 were expressed as a percent of control calculated as the average of the responses before and after EU1180-438 exposure. […]
(§4) Defolliculated Xenopus laevis oocytes (stage V-VI) were obtained from Ecocyte BioScience (Austin, Texas), or prepared from commercially available Xenopus ovaries (Xenopus 1, Dexter, MI) as previously described (Hansen, et al., Mol. Pharmacol., 2013). […] Recording electrodes were filled with 0.3-3.0 M KCl, and current responses were recorded at a holding potential of −40 mV.

GABA receptors = GABA receptors in Xenopus oocytes (selectivity); format: cell-based, rat; conditions: 20 μM
Procedure: as §1, §2, §3, §4

[1] = target: T1, rat GluN1-4a/GluN3B receptors (Rattus norvegicus, UniProt Q8VHN2); assay: Two-electrode voltage-clamp recordings of GluN1-4a/GluN3B receptors in the presence of CGP-78608 (Xenopus oocytes); format: cell-based
T1 construct: Human GluN3A (NP_597702.2) and rat GluN3B (NP_579842.2) were synthesized and subcloned into SP6 plasmids; expressed in transfected cells; host or cells: Xenopus laevis oocytes, cRNA injection
From the text: (§5) cDNA encoding human wild-type (WT) GluN1-1a (GenBank accession numbers NP_015566, hereafter GluN1) and rat GluN1-1a (NP_058706.1) were synthesized and subcloned into pGEMHE plasmid; some experiments used the rat splice variant GluN1-4a (NP_001257531.1). Human GluN3A (NP_597702.2) and rat GluN3B (NP_579842.2) were synthesized and subcloned into SP6 plasmids. For most experiments, human GluN1 was co-expressed with human GluN3A, except for mutagenesis experiments where rat GluN1 was co-expressed with human GluN3A. Rat GluN1-4a was always expressed with rat GluN3B.
(§6) Defolliculated Xenopus laevis oocytes (stage V-VI) were obtained from Ecocyte BioScience (Austin, Texas), or prepared from commercially available Xenopus ovaries (Xenopus 1, Dexter, MI) as previously described (Hansen, et al., Mol. Pharmacol., 2013). A Drummond Nanoject II (Broomall, PA) was used to inject oocytes with cRNAs encoding GluN1 and GluN3 at a 1:3 ratio in RNase-free water. The cRNA was diluted as needed to give responses with amplitudes ranging between 200-2000 nA (0.2-10 ng total cRNA). Following cRNA injection, the oocytes were stored at 15-19° C. in Barth's solution that contained (in mM) 88 NaCl, 2.4 NaHCO3, 1 KCl, 0.33 Ca(NO3)2, 0.41 CaCl2), 0.82 MgSO4, and 5 Tris-HCl (pH 7.4 with NaOH), supplemented with 1 μg/ml streptomycin (Invitrogen, Carlsbad, CA) and 100 μg/ml gentamicin (Fisher Scientific, Pittsburgh, PA). Recordings were performed 2-5 days following cRNA microinjection at room temperature (23° C.) using a two-electrode voltage-clamp amplifier (OC725, Warner Instrument, Hamilton, CT). The signal was low-pass filtered at 10-20 Hz (4-pole, −3 dB Bessel) and digitized at the Nyquist rate using PCI-6025E or USB-6212 BNC data acquisition boards (National Instruments, Austin, TX) using EasyOocyte (http://www.easyoocyte.io/). Oocytes were placed in a custom-made chamber and continuously perfused (2.5 ml/min) with oocyte recording solution containing (in mM) 90 NaCl, 1 KCl, 10 HEPES, 0.5-1.0 BaCl2, and 0.01 EDTA (pH 7.4 with NaOH). Solutions were applied by gravity, and solution exchange was controlled through a rotary valve (Hamilton, Reno, NV). Recording electrodes were filled with 0.3-3.0 M KCl, and current responses were recorded at a holding potential of −40 mV.
(§7) Response (%)=(100−minimum)/(1+([concentration]/IC50)^nH)+minimum (2) • where nH is the Hill slope, IC50 is the concentration that produces a half-maximal effect, and minimum is the degree of residual inhibition at a saturating concentration of the negative allosteric modulator.
(§8) Selected compounds were also screened in the same assay as EU1180-438 to determine their effect on GluN3B.

[2] = target: T2, rat GluN1-4a/GluN3B receptors (Rattus norvegicus, UniProt P35439+Q8VHN2); assay: as above; format: cell-based; conditions: pH 7.4; 0.5 μM CGP-78608; read-out: EC50, (95% CI) GluN1/GluN3B + CGP
T2 construct: Human GluN3A (NP_597702.2) and rat GluN3B (NP_579842.2) were synthesized and subcloned into SP6 plasmids; expressed in transfected cells; host or cells: Xenopus laevis oocytes, cRNA injection
From the text: as §5, §6, §7, §8

[3] = target: T3, human GluN1^FA,TL/GluN3A receptors (Homo sapiens, UniProt Q8TCU5); assay: Two-electrode voltage-clamp recordings of GluN1^FA,TL/GluN3A receptors in Xenopus oocytes; format: cell-based; conditions: for % Inhibition GluN1^FATL/GluN3A: fitted maximum at saturating test compound
T3 construct: Human GluN3A (NP_597702.2) and rat GluN3B (NP_579842.2) were synthesized and subcloned into SP6 plasmids; expressed in transfected cells; host or cells: Xenopus laevis oocytes, cRNA injection (GluN1:GluN3 1:3)
How it was run: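 Human GluN1 with human GluN3A cRNA (1:3) in oocytes, recorded 2-5 days post-injection at 23° C, holding −40 mV, in Ba2+-containing recording solution pH 7.4. Compounds screened at 10 or 30 μM; those inhibiting >20% given concentration-response fits for IC50, Hill slope and residual inhibition.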

[4] = target: T4, human GluN1/GluN3A receptors (Homo sapiens, UniProt Q05586+Q8TCU5); assay: Two-electrode voltage-clamp recordings of GluN1/GluN3A receptors in the presence of CGP-78608 (Xenopus oocytes); format: cell-based; conditions: pH 7.4; 0.5 μM CGP-78608; read-out: EC50, (95% CI) GluN1/GluN3A + CGP
T4 construct: Human GluN3A (NP_597702.2) and rat GluN3B (NP_579842.2) were synthesized and subcloned into SP6 plasmids; expressed in transfected cells; host or cells: Xenopus laevis oocytes, cRNA injection
From the text: as §5, §6, §7

[5] = target: T5, human GluN1/GluN3A receptors (Homo sapiens, UniProt Q8TCU5); assay: as above; format: cell-based
T5 construct: Human GluN3A (NP_597702.2) and rat GluN3B (NP_579842.2) were synthesized and subcloned into SP6 plasmids; expressed in transfected cells; host or cells: Xenopus laevis oocytes, cRNA injection
From the text: as §5, §6, §7

[6] = 500 nM CGP-78608 plus 100 μM glycine
[7] = fitted maximum at saturating test compound, pH 7.4, 0.5 μM CGP-78608

T1 sequence (Q8VHN2 25-1002, other chains not shown): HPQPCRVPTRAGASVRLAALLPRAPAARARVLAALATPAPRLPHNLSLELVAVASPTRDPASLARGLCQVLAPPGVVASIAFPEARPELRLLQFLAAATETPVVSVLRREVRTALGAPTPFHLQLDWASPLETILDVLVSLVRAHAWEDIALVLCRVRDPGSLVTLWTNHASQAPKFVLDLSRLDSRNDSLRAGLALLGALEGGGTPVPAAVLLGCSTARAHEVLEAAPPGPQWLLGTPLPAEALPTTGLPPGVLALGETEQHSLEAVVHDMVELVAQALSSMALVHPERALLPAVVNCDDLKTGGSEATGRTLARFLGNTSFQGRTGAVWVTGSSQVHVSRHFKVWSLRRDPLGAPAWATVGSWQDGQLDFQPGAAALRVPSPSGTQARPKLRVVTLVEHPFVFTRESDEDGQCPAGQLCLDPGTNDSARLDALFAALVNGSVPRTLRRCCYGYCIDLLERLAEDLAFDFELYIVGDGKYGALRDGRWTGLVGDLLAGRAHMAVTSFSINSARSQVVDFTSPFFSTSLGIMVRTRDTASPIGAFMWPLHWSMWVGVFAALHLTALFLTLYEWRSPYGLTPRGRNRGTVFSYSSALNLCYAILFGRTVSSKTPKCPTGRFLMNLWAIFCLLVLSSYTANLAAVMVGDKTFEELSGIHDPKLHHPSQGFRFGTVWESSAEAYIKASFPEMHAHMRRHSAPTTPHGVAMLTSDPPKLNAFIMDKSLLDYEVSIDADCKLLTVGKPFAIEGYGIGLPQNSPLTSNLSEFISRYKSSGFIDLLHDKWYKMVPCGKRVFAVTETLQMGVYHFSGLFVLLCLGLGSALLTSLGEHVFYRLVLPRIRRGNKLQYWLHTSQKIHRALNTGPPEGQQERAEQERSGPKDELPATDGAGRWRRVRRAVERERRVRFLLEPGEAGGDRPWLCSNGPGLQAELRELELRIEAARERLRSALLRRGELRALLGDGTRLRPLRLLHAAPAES
T5 sequence (Q8TCU5 24-1115, other chains not shown): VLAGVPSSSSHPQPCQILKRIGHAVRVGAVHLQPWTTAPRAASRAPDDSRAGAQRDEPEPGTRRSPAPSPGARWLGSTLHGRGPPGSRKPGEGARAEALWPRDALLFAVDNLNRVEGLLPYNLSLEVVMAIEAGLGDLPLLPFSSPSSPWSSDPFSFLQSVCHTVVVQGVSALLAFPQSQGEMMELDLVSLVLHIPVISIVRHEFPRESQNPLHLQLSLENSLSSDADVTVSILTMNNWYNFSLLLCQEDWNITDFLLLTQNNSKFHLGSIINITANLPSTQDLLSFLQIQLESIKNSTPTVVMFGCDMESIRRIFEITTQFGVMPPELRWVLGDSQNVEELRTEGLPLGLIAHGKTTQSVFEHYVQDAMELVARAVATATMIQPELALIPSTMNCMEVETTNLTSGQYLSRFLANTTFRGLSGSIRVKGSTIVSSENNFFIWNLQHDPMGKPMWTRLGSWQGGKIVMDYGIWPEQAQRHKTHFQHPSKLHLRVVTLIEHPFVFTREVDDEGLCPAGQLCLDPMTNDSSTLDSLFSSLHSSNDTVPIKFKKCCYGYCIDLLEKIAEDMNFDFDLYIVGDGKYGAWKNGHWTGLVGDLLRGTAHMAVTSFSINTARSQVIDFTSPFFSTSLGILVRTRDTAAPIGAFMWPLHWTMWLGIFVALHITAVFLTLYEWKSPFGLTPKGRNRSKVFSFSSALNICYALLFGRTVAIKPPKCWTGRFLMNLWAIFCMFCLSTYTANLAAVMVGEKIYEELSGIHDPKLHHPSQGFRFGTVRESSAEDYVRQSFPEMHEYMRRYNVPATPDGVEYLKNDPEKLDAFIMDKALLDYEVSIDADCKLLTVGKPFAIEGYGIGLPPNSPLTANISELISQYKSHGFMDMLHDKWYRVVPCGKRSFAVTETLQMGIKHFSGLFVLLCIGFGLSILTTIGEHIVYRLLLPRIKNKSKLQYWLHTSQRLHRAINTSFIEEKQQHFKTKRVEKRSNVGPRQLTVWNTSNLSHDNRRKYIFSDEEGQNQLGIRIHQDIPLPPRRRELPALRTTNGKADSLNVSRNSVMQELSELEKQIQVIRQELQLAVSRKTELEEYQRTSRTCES
T3 sequence (Q8TCU5 24-1115, other chains not shown): as above
T2 sequence (Q8VHN2 25-1002, other chains not shown): as the sequence (Q8VHN2 25-1002, other chains not shown) above
T4 sequence (Q8TCU5 24-1115, other chains not shown): as the sequence (Q8TCU5 24-1115, other chains not shown) above

- activity at GABA receptors (GABA receptors): virtually no activity
- maximal inhibition ([1]; 500 nM CGP-78608): 93%
- Slope [1, 6]: 1.5
- minimum [1, 6]: 7%
- % Inhibition GluN1/GluN3B + CGP [1, 7]: 93%, (n = 8)
- EC50 [2]: 2.2 µM
- Slope ([3]; concentration-response curve, 1000 μM glycine): 1.24
- % Inhibition GluN1^FATL/GluN3A ([3]; pH 6.8): 72%^a, (n = 7)
- % Inhibition GluN1^FATL/GluN3A ([3]; pH 7.4): 82%, (n = 18)
- maximal inhibition at saturating concentrations ([3]; pH 6.8): 72%
- IC50 ([3]; pH 6.8, holding potential −40 mV, read-out: EC50, (95% CI) GluN1^FATL/GluN3A): 4.2 µM
- IC50 ([3]; pH 6.8, read-out: IC50): 4.2 µM
- inhibition at a saturating concentration ([3]; pH 7.4): 82%
- IC50 ([3]; pH 7.4, holding potential −40 mV, read-out: EC50, (95% CI) GluN1^FATL/GluN3A): 3.5 µM
- remaining activity at 10 µM ([3]; read-out: response in the presence of compound, % of control): 29 ± 4.2%
- minimum ([3]; residual response at saturating concentration, 1000 μM glycine): 18%
- IC50 ([3]; responses activated by 1000 μM glycine, pH 7.4, read-out: IC50): 3.5 µM
- EC50 [4]: 1.8 µM
- maximal inhibition ([5]; 500 nM CGP-78608): 85%
- Slope [5, 6]: 1.5
- minimum [5, 6]: 15%
- % Inhibition GluN1/GluN3A + CGP [5, 7]: 85%, (n = 9)
SMILES: COc1ccc(OCC(c2ccc(OC)cc2)N2Cc3ccccc3C2=O)cc1 (racemic) [EU1180-438, 2-(2-(4-methoxyphenoxy)-1-(4-methoxyphenyl)ethyl)isoindolin-1-one]
- activity at nicotinic receptors (nicotinic receptors): inhibited some, but not all, nicotinic receptors
- effect of increasing glycine concentration on inhibition [3]: not altered by increasing glycine concentration
- voltage dependence of inhibition (current-voltage relationship) ([3]; 4 μM compound): no effect of holding voltage on EU1180-438 inhibition
